Patent US20240368563A1, “IN VITRO METHOD OF INVASIVE AND DUCTAL CELL GROWTH” (Helmholtz Zentrum München - Deutsches Forschungszentrum Für …, priority 2021, published 2024)

Legend:
Type in all cases: cell-based
[1] = system: human mammary luminal progenitor (LP) cells; assay: Live-cell imaging of LP-derived organoids during elongation phase (cell movement, bead displacement, duct elongation)
Method: Live cell imaging was performed using a Leica SP8 lightning confocal microscope with an on-stage incubation system (Ibidi) regulating CO2, O2, humidity and temperature. Organoids were imaged during elongation phase between day 7 and 9 with a time separation of 10 min between each acquired image. For visualization, nuclei were labelled with 10 μM sirDNA (Spirochrome AG) 3 hours prior to the measurements. Accordingly, organoids were excited at 633 nm and the fluorescent signal was collected around 674 nm using a HCX PL APO 10×/0.40 CS dry objective. Bead displacements/deformation fields were visualized using ImageJ 1.48v. First, the fluorescence signal of the fluorescent nuclei at the first time step was summed up along the z-axis to visualize the shape of the organoid. Second the fluorescence channel of the beads was summed along the z-axis and subsequently summed up over all time steps. At last, both calculated pictures were merged into one image. Bead tracking was calculated using Matlab R2020b. First, the fluorescence channel of the beads was masked by an intensity threshold to reduce the background. Second, bead positions are defined by taking the center of an interpolated intensity grid. Third, individual bead tracks were calculated by matching bead coordinates in three consecutive images. Thereby, beads touching the boundaries or beads to close to each other were excluded to guarantee a correct tracking.
Analysis for structure prevalence, type, size and complexity was performed with GraphPad Prism 8. Nuclei velocity within the organoid was calculated via optical flow using the in Matlab implemented Farneback algorithm. By defining the branch axis, the velocities were separated in a parallel and orthogonal component. The directionality of nuclei migration was defined by calculating the ratio of parallel and orthogonal component. Consequently, at directionality equal to one parallel and orthogonal component are at the same order of magnitude. At higher or lower values, either parallel or orthogonal velocity component dominates. In order to visualize the migration patterns of individual cells, cells were manually tracked. Therefore, each nucleus was tracked three times and the resulting average path was calculated.
Collagen degradation via MMPs was inhibited by using 10 μM Marimastat (Merck, 444289), which was added to the medium of elongating organoids prior to imaging. E-cadherin blocking was performed by addition of an E-cadherin blocking-antibody HECD1 in a dilution of 1:25 after 5 d of organoid culture.

[2] = system: human mammary luminal progenitor (LP) cells; assay: Branched structure formation of single LP cells in collagen type I gels (carmine staining, quantification of structure type, size, complexity)
Method: Healthy mammary gland tissue was provided by the Nymphenburg Clinic for Plastic and Aesthetic Surgery and processed in accordance with the regulations of the ethics committee of the Ludwig-Maximilian University, Munich, Germany (proposal 19-989) as described previously^35,63. In brief, reduction mammoplasty tissue was minced with scalpels into 2-3 mm^3 pieces. Next, tissue was digested with 300 U/mL collagenase I and 100 U/mL hyaluronidase and 1 μg/mL insulin for approximately 16 hrs. Finally, fragments were either cryopreserved immediately or a single cell suspension was made using trypsin-EDTA and dispase. If cells were cryopreserved as fragments, they were turned into a single cell suspension upon thawing using trypsin-EDTA and dispase. Prior to experiments, single cell suspensions were filtered through a 40 μm cell strainer. Age and parity of donors used in this study are catalogued in Table 1 given directly below.
3D collagen type I gels were prepared as described previously^35,63 with modifications. Single cell suspensions were mixed with BLOM foundation, rat tail collagen type I (Corning) and neutralizing solution. The final collagen concentration was 1.3 mg/ml. If the pH of the solution was <7.4, the pH was adjusted by addition of NaOH (1 M) up to a volume of 1 μl per 100 μl polymerization solution. After polymerization for 1 hr, 2× concentrated full medium was added onto the gels in a 1:1 volume ratio to the gel. Gels were encircled with a pipette tip for detachment. For cells that had not been in culture previously, the first medium exchange (from now on with 1× concentrated medium) was done after 5 d and then every 2-3 d. In case of cells that had been in 2D culture before, the first medium exchange was done between 3 d and 5 d. For all experiments except ELDA, per 1 ml of gel, between 250 and 2000 LP cells were seeded. In case of B+ and LM cells, between 2000 and 7500 cells were seeded per 1 ml of gel.
Images of carmine stained structures were evaluated with ImageJ. The size of an organoid was determined with the ImageJ area tool. Here, all tips of the structure were virtually connected with the ImageJ area tool and size was defined as the area covered by the organoid. For assessment of complexity, the longest branch was identified within each structure. The hierarchy of all other branches relative to this longest branch was classified (see FIG. 6B).
Carmine staining solution was prepared with a concentration of 0.5 g/l carmine and 1.15 g/l aluminium potassium sulfate in distilled water. For staining of 3D structures, gels were fixed with 4% paraformaldehyde for 15 min and incubated with carmine staining solution overnight. Images were acquired on a Leica DM IL LED microscope using a HiPlan 10×/0.22 PH1 objective. Three PBS washing steps were performed in between all steps described above.

[3] = system: human mammary luminal progenitor (LP) cells; assay: Immunofluorescence of polarization markers in LP-derived organoids; details: BLOM-medium without Y-27632
Method: 2D cells for immunofluorescence were cultured in 96-wells with optically clear bottom (PerkinElmer, 6005550). Immunofluorescence was performed as described previously^35,63. In brief, 2D cells or 3D cells (in collagen type I gels) were fixed with 4% paraformaldehyde for 15 min. Cells were permeabilized with 0.2% Triton X-100 for 2 min (2D) and 10 min (3D) respectively. Blocking was performed with 10% donkey serum in 0.1% BSA for 1 hr (2D) and overnight at 4° C. (3D) respectively. Primary antibodies in 0.1% BSA were incubated for 1 hr (2D) and overnight at 4° C. (3D) respectively. Next, DAPI (167 ng/ml) was added for 2 min (2D) and 10 min (3D), respectively. Finally, Aqua-Poy/Mount mounting medium (Polysciences, 18606) was added to preserve staining. Three PBS washing steps were performed in between all steps described above. Images of cells grown in 2D were acquired on an Axio Imager. A M2m imaging microscope was used with a 40× objective. Images of cells grown in 3D were acquired on FLUOVIEW FV1000 inverted confocal laser scanning microscope equipped with four laser lines (405, 488, 543, and 633 nm) using UPLSAPO 60×, 40× and 20× objective lenses. Images were processed with Gimp 2.8.22 and ImageJ 1.52i.

[4] = 10 μM Marimastat during branch elongation phase

CNC(=O)[C@@H](NC(=O)[C@H](CC(C)C)[C@H](O)C(=O)NO)C(C)(C)C [Marimastat]
duct elongation / invasion of branch tips (in words) [1, 4]: stopped the branch tips from further invading the matrix | general cytotoxic effect (in words) [1, 4]: excluding a general cytotoxic effect

Cc1ccc2c(c1)C(=O)[C@]1(O)CCN(c3ccc(N)cc3)C1=N2 [PAB, para-amino blebbistatin]
branched structure phenotype when Y-27632 is replaced by PAB (in words) ([2]; BLOM-medium without Y-27632, PAB added, donors M16, M28, M44): able to induce a phenotype similar to the one created by Y-27632

C[C@@H](N)[C@H]1CC[C@H](C(=O)Nc2ccncc2)CC1 [Y-27632]
decrease in branched structure formation upon removal of Y-27632 ([2]; BLOM-medium without Y-27632 (DMSO ctrl) vs with Y-27632 (5 μM), donors M35, M44, M45): 79% | change in size of branched structures upon removal of Y-27632 ([2]; BLOM-medium without Y-27632 (DMSO ctrl) vs with Y-27632, size = area covered by organoid): −66% | organoids with tertiary or even more complex branches ([2]; control organoids in BLOM-medium with Y-27632 (only 6% without Y-27632)): 65% | formation of elongated branched structures (in words) ([2]; medium deprived of Y-27632): prevented the formation of elongated branched structures almost completely | bead displacement / contractility (in words) ([1]; in the presence of ROCK inhibitor, collagen gels spiked with fluorescent beads): not completely abolished, but limited to the front of elongating branches | directionality of cell migration within organoids (in words) ([1]; under ROCK inhibition (with Y-27632), nuclear labelling): primarily directed outwards in parallel to the axis of the extending branch | apical-basal polarization of organoids (laminin, F-actin, lumen) (in words) [3]: polarization was disturbed in the absence of ROCK inhibition
